According to patent publication US20130303768A1, “METHOD AND SUBSTANCES FOR PREPARATION OF N-SUBSTITUTED PYRIDINIUM COMPOUNDS” (ROCHE DIAGNOSTICS OPERATIONS, INC., priority 2011, published 2013):

Tests used:
[1] = system: GlucDH mut 2; assay: Enzymatic reduction of Acetyl-cNAD by GlucDH mut 2 with glucose; assay type: biochemical; conditions: 25° C., Tris-buffer pH 8.5, glucose, UV/VIS spectra after 30 min
Description: Acetyl-cNADH and for comparison cNAD, cNADP were reduced by using GlucDH mut 2 (WO2010/094632) using the following conditions:
A Dilution buffer (NaCl 0.2 mol/l; Tris 0.1 mol/l; pH 8.5) was prepared as follows: 11.7 g NaCl and 12.1 g Tris (=[…]) were dissolved in 900 ml bidest. water and the pH was adjusted to pH 8.5 by addition of HCL 1N and filled to 1.00 l with bidest. Water.
Glucose-solution: 2.00 g D(+)-Glucose-Monohydrate were dissolved in 10.0 ml bidest. water. The solution is ready for usage after 2 h at room temperature.
GlucDH2-stock-solution: 10.0 mg of the enzyme (Lyo) were dissolved in 1.00 ml Tris-buffer.
Reduction of Acetyl-cNAD-solution (15 mmol/l): 9.90 mg Acetyl-cNAD (Mw=659.47 g/mol) were dissolved in 1.00 ml bidest. water.
100 μl GlucDH2-stock-solution were dissolved in 0.90 ml dilution buffer (dilution factor=10).
1. The tempered (25° C.) reagent solutions were pipetted into a 1 cm plastic cuvette as follows:
(§1) After mixing and tempering to 25° C., the reaction was started by addition of 0.05 ml the above mentioned corresponding GlucDH2-solutions. An UV/VIS spectra was recorded after 30 min.

[2] = UV/VIS absorption spectrum after enzymatic reduction; assay type: physicochemical; conditions: FIG. 1, reduced form
Description: as §1
This is a significant advantage for redox-based assays, since it allows to reduce or avoid the interference from auto-fluorescent compounds comprised in (biological) samples

Row | Molecule | coenzyme function for a dehydrogenase [1] | absorption maximum [2]
1 | CC(=O)c1ccc[n+]([C@@H]2C[C@H](COP(=O)([O-])OP(=O)(O)OC[C@H]3O[C@@H](n4cnc5c(N)ncnc54)[C@H](O)[C@@H]3O)[C@@H](O)[C@H]2O)c1 [Acetyl-cNAD] | serves as a coenzyme for a dehyrogenase | 
2 | Acetyl-cNADH |  | about 380 nm
